Reference: US8952128B2, “Somatostatin-dopamine chimeric analogs” (priority 2012, dated 2015)
Where two headings read alike, the source gives them in different places. Numbered stars: 1 amine (or outer) side, 2 acyl side, 3 side chain; on linkers, the order of the positions; unused ones are H or OH. Bridge positions count the residues as written; N and C are the ends. Square brackets hold non-standard residues; d marks the D form. Peptide text beside a SMILES is read from it. X1 = CN1C[C@H](CSCCN(CCSC[C@@H]2C[C@@H]3c4cccc5[nH]cc(c45)C[C@H]3N(C)C2)[C@H](CCCCN[*:2])C(=O)[*:1])C[C@@H]2c3cccc4[nH]cc(c34)C[C@H]21

Assays:
[1] = tested on: pituitary tumor cells of acromegalic patients presenting with macroadenoma; assay: Human pituitary adenoma cell growth hormone release assay; type: cell-based; settings: 18 hours incubation, FIG. 5
Experimental: FIG. 1 is a graph showing the Growth hormone suppressing activity of Compound 4 (see Table I hereinbelow for its chemical name and its corresponding structural representation) on pituitary tumor cells of acromegalic patients presenting with macroadenoma. Various concentrations of Compound 4 were added to the medium and the cells were incubated for 18 hours before measurement of Growth hormone levels in the medium using the AlphaLISA Growth Hormone Immunoassay Research kit (PerkinElmer).
Various concentrations of Compounds 4 and 5 were added to the medium and the cells were incubated for 18 hours before measurement of Growth hormone levels in the medium using the AlphaLISA Growth Hormone Immunoassay Research kit (PerkinElmer).
Acromegalic patients presenting with macroadenoma underwent transsphenoidal surgery and a portion of each tumor obtained at surgery was dissociated by enzymatic and mechanical methods. The cells were cultured in DMEM medium supplemented with 10% FBS and antibiotics for 3 days. The cells were then plated in multi-well tissue culture dishes coated with extracellular matrix from bovine endothelial corneal cells at a density of 3-5×10^4 cells/well in DMEM supplemented with 10% FBS and antibiotics. After 2-3 days of culture, the medium was changed to DMEM supplemented with 1% FBS, antibiotics and 1% ITS (insulin, transferrin and selenium).

hSSTR2 [2] = target: T1, hSSTR2 (Homo sapiens (Human), UniProt P30874); assay: Intracellular calcium mobilization assay (FLIPR Calcium 4), hSSTR2; type: cell-based; settings: for Emax: read-out: hSSTR2 % Emax ± SEM;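 as to all read-outs here: agonist activity read as intracellular calcium rise in cells expressing human SSTR2, loaded with a calcium-sensitive dye for 60 min at 37 °C, measured by FLIPR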
T1 sequence (P30874 whole entry): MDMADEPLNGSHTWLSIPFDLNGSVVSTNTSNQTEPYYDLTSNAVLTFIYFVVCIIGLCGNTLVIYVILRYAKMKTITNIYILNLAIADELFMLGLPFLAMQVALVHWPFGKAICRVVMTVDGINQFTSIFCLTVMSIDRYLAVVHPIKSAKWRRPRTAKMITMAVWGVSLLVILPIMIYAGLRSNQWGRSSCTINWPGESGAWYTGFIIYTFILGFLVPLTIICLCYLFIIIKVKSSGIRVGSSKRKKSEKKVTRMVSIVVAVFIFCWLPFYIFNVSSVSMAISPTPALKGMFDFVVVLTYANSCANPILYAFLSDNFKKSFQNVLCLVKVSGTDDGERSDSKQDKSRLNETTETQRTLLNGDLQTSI
Experimental: (§5) The ability of select compounds according to the present invention to activate hSSTR2 and hDRD2 was determined by the intracellular calcium mobilization assay using FLIPR Calcium 4 assay kit (Molecular Devices).
(§6) Cells expressing hSSTR2 or hDRD2 were plated in 384-well microplates in tissue culture media and incubated for 16-24 hours at 37° C. in a humidified atmosphere with 5% CO2. Medium was replaced by loading buffer containing Hank's buffered saline, 20 mM HEPES, 2.5 mM probenecid and Calcium 4 dye, and the plates were incubated at 37° C. for 60 minutes.

hDRD2 [3] = target: T2, hDRD2 (Homo sapiens (Human), UniProt P14416); assay: cell-based
Experimental: as §5, §6

hSSTR3 = hSSTR3 (Homo sapiens (Human), UniProt P32745); assay: Somatostatin receptor radioligand binding assay, hSSTR3; settings: CHO-K1 membranes, [125I-Tyr11]-SRIF-14; read-out: hSSTR3 Ki (nM) ± SEM
Chain of hSSTR3 (P32745 whole entry): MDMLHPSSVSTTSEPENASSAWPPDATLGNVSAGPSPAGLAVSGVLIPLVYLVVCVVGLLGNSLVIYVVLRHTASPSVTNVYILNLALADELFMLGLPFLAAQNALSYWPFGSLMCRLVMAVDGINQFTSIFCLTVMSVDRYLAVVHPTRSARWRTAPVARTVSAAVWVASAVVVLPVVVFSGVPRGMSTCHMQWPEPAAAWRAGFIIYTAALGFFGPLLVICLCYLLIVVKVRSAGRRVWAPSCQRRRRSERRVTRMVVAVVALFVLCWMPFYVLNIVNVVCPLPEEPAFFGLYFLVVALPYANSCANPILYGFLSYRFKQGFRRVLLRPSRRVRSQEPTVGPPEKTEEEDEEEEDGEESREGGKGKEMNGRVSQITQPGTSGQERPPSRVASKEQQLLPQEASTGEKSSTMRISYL
Experimental: (§1) The affinities of a test compound for the human somatostatin receptors were determined by radioligand binding assays in CHO-K1 cells stably transfected with each of the human somatostatin receptor subtypes, hSSTR1-5. […] Clonal cell lines stably expressing each of the somatostatin receptors were obtained by transfection into CHO-K1 cells (ATCC) and subsequently selected with culture media containing 0.8 mg/mL of G418 (Life Technologies).
(§2) Membranes for in vitro receptor binding assays were obtained by the following procedures. CHO-K1 cells expressing one of the somatostatin receptors were homogenized in ice-cold buffer with 10 mM Tris-HCl, 5 mM EDTA, 3 mM EGTA, 1 mM phenylmethylsuphonyl fluoride, pH 7.6, using Polytron PT10-35GT (Kinematica) at 18,000 rpm for 30 seconds and centrifuged at 500×g for 10 minutes. The supernatant containing the plasma membranes was centrifuged at 100,000×g for 30 minutes and the pellet was resuspended in buffer containing 20 mM glycine-glycine, 1 mM MgCl2, 250 mM sucrose, pH 7.2, for storage at −80° C.
(§3) For the hSSTR3 and 4 assays, membranes and various concentrations of test compounds were incubated in 96-well plates for 60 minutes at 25° C. with 0.05 nM [^125I-Tyr^11]-SRIF-14 (PerkinElmer Life Science) in 50 mM HEPES, 0.2% BSA, 5 mM MgCl2, 200 KIU/mL trasylol, 0.02 mg/mL bacitracin, and 0.02 mg/mL phenylmethylsuphonyl fluoride, pH 7.5.
(§4) The incubations were terminated by rapid filtration through GF/C glass microfiber filter plates (pre-wet with 0.3% polyethyleneimine and 0.1% BSA) using a 96-well cell harvester (Brandel). Plates were washed six times with 1 mL/well aliquots of ice-cold buffer containing 50 mM Tris buffer, pH 7.7. Specific binding was defined as the total radioligand bound minus the bound in the presence of 1000 nM SRIF-14.

hSSTR4 = hSSTR4 (Homo sapiens (Human), UniProt P31391); assay: Somatostatin receptor radioligand binding assay, hSSTR4; settings: CHO-K1 membranes, [125I-Tyr11]-SRIF-14; read-out: hSSTR4 Ki (nM) ± SEM
Chain of hSSTR4 (P31391 whole entry): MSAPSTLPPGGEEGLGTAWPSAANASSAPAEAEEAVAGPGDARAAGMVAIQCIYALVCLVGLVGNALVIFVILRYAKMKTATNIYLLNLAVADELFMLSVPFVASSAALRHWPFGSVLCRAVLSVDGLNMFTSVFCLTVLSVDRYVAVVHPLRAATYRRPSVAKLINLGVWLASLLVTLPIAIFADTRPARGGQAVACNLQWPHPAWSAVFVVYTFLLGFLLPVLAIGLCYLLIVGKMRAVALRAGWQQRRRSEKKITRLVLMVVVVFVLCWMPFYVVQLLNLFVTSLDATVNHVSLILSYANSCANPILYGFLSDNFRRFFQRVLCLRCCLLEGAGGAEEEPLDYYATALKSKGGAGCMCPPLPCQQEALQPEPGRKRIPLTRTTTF
Experimental: as §1, §2, §3, §4

hSSTR2 [4] = target: T1, hSSTR2; assay: Somatostatin receptor radioligand binding assay, hSSTR2; settings: CHO-K1 membranes, [125I-Tyr]-seglitide; read-out: hSSTR2 Ki (nM) ± SEM
Experimental: The affinities of a test compound for the human somatostatin receptors were determined by radioligand binding assays in CHO-K1 cells stably transfected with each of the human somatostatin receptor subtypes, hSSTR1-5. The cDNA coding sequences of hSSTR1 (GenBank accession No. NM—001049.1), hSSTR2 (GenBank accession No. XM—012697.1), hSSTR3 (GenBank accession No. XM—009963.1), hSSTR4 (GenBank accession No. NM—001052.1), and hSSTR5 (GenBank accession No. XM—012565.1) were subcloned into the mammalian expression vector pcDNA3.1 (Life Technologies). Clonal cell lines stably expressing each of the somatostatin receptors were obtained by transfection into CHO-K1 cells (ATCC) and subsequently selected with culture media containing 0.8 mg/mL of G418 (Life Technologies).
Membranes for in vitro receptor binding assays were obtained by the following procedures. […] The supernatant containing the plasma membranes was centrifuged at 100,000×g for 30 minutes and the pellet was resuspended in buffer containing 20 mM glycine-glycine, 1 mM MgCl2, 250 mM sucrose, pH 7.2, for storage at −80° C. […]

hDRD2 [5] = target: T2, hDRD2; type: binding; settings: CHO-K1 membranes, [3H]-spiperone; read-out: hDRD2 Ki (nM) ± SEM

Row | Structure (SMILES) | Growth hormone suppressing activity compared to parent somatostatin analogs [1] | EC50 (hSSTR2 [2]) | improvement in EC50 and/or % Emax over Reference Compound B (hSSTR2 [2]; calcium mobilization) | Emax (hSSTR2 [2]) | EC50 (hDRD2 [3]) | other results
1 | C[C@@H](O)[C@@H]1NC(=O)[C@H](CCCCN)NC(=O)[C@@H](Cc2c[nH]c3ccccc23)NC(=O)[C@H](Cc2ccncc2)NC(=O)[C@H](Cc2ccccc2)NC(=O)[C@H](CCCNC(=N)N)NC(=O)[C@H](NC[C@H](Cc2ccc(O)cc2)NC(=O)CSC[C@@H]2C[C@@H]3c4cccc5[nH]cc(c45)C[C@H]3N(C)C2)CCCCNC(=O)[C@H](Cc2ccccc2)NC1=O [Compound 4, Dop1-Tyr-psi(CH2NH)-cyclo(DLys-Arg-Phe-4Pal-DTrp-Lys-Thr-Phe)] | enhanced Growth hormone suppressing activity | 7.6 ± 1.5 nM | statistically significant improvement | 100 ± 2.9% | 20.1 ± 2.6 nM | 
2 | C[C@@H](O)[C@@H]1NC(=O)[C@H](CCCCN)NC(=O)[C@@H](Cc2c[nH]c3ccccc23)NC(=O)[C@H](Cc2ccccc2)NC(=O)[C@H](Cc2ccccc2)NC(=O)[C@H](CCCNC(=N)N)NC(=O)[C@H](NC[C@H](Cc2ccc(O)cc2)NC(=O)CSC[C@@H]2C[C@@H]3c4cccc5[nH]cc(c45)C[C@H]3N(C)C2)CCCCNC(=O)[C@H](Cc2ccc(F)cc2)NC1=O [Compound 5, Dop1-Tyr-psi(CH2NH)-cyclo(DLys-Arg-Phe-Phe-DTrp-Lys-Thr-4FPhe)] | enhanced Growth hormone suppressing activity | 14.6 ± 1.9 nM | statistically significant improvement | 97 ± 3.6% | 30.1 ± 5.3 nM | 
3 | C[C@@H](O)[C@@H]1NC(=O)[C@H](CCCCN)NC(=O)[C@@H](Cc2c[nH]c3ccccc23)NC(=O)[C@H](Cc2ccncc2)NC(=O)[C@H](Cc2ccccc2)NC(=O)[C@H](CCCNC(=N)N)NC(=O)[C@H](NCC[S@@+]([O-])C[C@@H]2C[C@@H]3c4cccc5[nH]cc(c45)C[C@H]3N(C)C2)CCCCNC(=O)[C@H](Cc2ccc(O)cc2)NC1=O [Compound 12, Dop1[(S)SO]-psi(CH2NH)-cyclo(DLys-Arg-Phe-4Pal-DTrp-Lys-Thr-Tyr)] |  |  |  | 90.9 ± 12.9% |  | Ki (hSSTR3): 143 ± 65.2 nM; Ki (hSSTR4): 3.2 ± 0.7 nM
4 | C[C@@H](O)[C@@H]1NC(=O)[C@H](CCCCN)NC(=O)[C@@H](Cc2c[nH]c3ccccc23)NC(=O)[C@H](Cc2cccnc2)NC(=O)[C@H](Cc2ccccc2)NC(=O)[C@H](CCCNC(=N)N)NC(=O)[C@H](NC[C@H](Cc2ccc(O)cc2)NC(=O)CSC[C@@H]2C[C@@H]3c4cccc5[nH]cc(c45)C[C@H]3N(C)C2)CCCCNC(=O)[C@H](Cc2ccccc2)NC1=O [Compound 38, Dop1-Tyr-psi(CH2NH)-cyclo(DLys-Arg-Phe-3Pal-DTrp-Lys-Thr-Phe)] |  |  |  |  | 7.5 ± 0.1 nM | Ki (hSSTR2 [4]): 0.76 ± 0.23 nM; EC50 (hSSTR2 [2]; calcium mobilization, read-out: hSSTR2 EC50 (nM) ± SEM): 24.9 ± 7.7 nM; Emax (hSSTR2 [2]; maximal effect in percentage of the maximal effect of SRIF-14): 83.5 ± 4.4%
5 | C[C@@H](O)[C@@H]1NC(=O)[C@H](CCCCN)NC(=O)[C@@H](Cc2c[nH]c3ccccc23)NC(=O)[C@H](Cc2ccccc2)NC(=O)[C@H](Cc2ccccc2)NC(=O)[C@H](CCCNC(=N)N)NC(=O)[C@H](N(CCSC[C@@H]2C[C@@H]3c4cccc5[nH]cc(c45)C[C@H]3N(C)C2)CCSC[C@@H]2C[C@@H]3c4cccc5[nH]cc(c45)C[C@H]3N(C)C2)CCCCNC(=O)[C@H](Cc2ccccc2)NC1=O [Compound 40, bis[Dop1-psi(CH2N)]-cyclo(DLys-Arg-Phe-Phe-DTrp-Lys-Thr-Phe)] (RFF[dW]KTF; linker N-C via X1) |  |  |  | 95 ± 6.1% |  | Ki (hDRD2 [5]): 445 ± 143 nM
